Assay results taken from article PMC8209157, “Identification of a dual orange/far-red and blue light photoreceptor from an oceanic green picoplankton” (Nature Communications, 2021).

How the values were obtained:
[1] = biological target: T1, PpPHY (PHY region of PpDUC1) (Pycnococcus provasolii, UniProt A0A830HT85); assay: UV-Vis photoconversion spectra of purified holoprotein; assay type: binding; settings: chromophore co-produced in E. coli (pKT272); HEPES pH 7.5, room temperature
T1 construct: gene PPROV_000692100; source genome assembly GCA_015473125.1
T1 sequence (A0A830HT85 1-662): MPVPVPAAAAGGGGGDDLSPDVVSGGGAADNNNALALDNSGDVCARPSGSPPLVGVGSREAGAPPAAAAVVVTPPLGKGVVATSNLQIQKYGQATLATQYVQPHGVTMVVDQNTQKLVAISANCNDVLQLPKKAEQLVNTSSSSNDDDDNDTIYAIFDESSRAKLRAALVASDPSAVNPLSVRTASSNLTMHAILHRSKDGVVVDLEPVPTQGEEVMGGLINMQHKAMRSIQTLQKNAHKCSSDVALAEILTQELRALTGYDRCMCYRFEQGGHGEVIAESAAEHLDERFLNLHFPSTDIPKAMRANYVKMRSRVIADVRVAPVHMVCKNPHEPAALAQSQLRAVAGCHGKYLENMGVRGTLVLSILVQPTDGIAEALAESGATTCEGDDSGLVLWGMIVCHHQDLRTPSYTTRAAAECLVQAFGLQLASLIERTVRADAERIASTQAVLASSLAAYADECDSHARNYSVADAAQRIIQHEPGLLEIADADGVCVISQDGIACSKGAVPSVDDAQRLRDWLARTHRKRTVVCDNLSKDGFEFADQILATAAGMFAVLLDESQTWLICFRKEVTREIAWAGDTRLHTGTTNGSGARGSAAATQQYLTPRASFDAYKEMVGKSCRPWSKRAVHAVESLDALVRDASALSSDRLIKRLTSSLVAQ

[2] = biological target: T1, PpPHY (PHY region of PpDUC1); assay: UV-Vis photoconversion spectra, acid-urea denaturation and in-gel fluorescence of purified holoprotein; assay type: binding; settings: covalent; GAF Cys; chromophore co-produced in E. coli (pKT271); HEPES pH 7.5, room temperature

UV-Vis photoconversion spectra, acid-urea denaturation and in-gel fluorescence o [2]	SMILES	UV-Vis photoconversion spectra of purified holoprotein [1]
	C=CC1=C(C)C(=CC2=NC(=Cc3[nH]c(C=C4NC(=O)C(C)C4=CC)c(C)c3CCC(=O)O)C(CCC(=O)O)=C2C)NC1=O (centres unmarked) [PΦB, phytochromobilin]	PΦB but not BV could be efficiently incorporated into the apo-PpPHY
The purified PpPHY covalently bound PCB	CC=C1C(=Cc2[nH]c(C=C3N=C(C=C4NC(=O)C(CC)=C4C)C(C)=C3CCC(=O)O)c(CCC(=O)O)c2C)NC(=O)C1C (centres unmarked) [PCB, phycocyanobilin]	
